Active and inactive are the calls of the source. The rule behind the calls is not given here.
Tested on: CCRIS mutagenicity, Ames/micronucleus/aberration tests
Assay: CCRIS mutagenicity studies

**Q.** With `O=C(O)C1C(C(=O)O)C2(Cl)C(Cl)=C(Cl)C1(Cl)C2(Cl)Cl` (centres undefined) as the compound, how does the mutagenic call (End Point: IN VITRO CHROMOSOMAL ABERRATIONS, Test System: CHINESE HAMSTER LUNG FIBROBLAST CELLS (CHL/IU), Metabolic Activation: RAT, LIVER, S-9, PHENOBARBITAL AND 5,6-BENZOFLAVONE) read?
**A.** active; positive (structural changes)

**Q.** And the mutagenic call (Test System: AMES SALMONELLA TYPHIMURIUM, Strain/Indicator: TA98, Metabolic Activation: HAMSTER, LIVER, S-9, AROCLOR 1254, Method: PREINCUBATION)?
**A.** inactive; negative

**Q.** What about the mutagenic call (Test System: AMES SALMONELLA TYPHIMURIUM, Strain/Indicator: TA98, Metabolic Activation: NONE, Method: PREINCUBATION) of the same compound?
**A.** inactive; negative

**Q.** What about the mutagenic call (Test System: AMES SALMONELLA TYPHIMURIUM, Strain/Indicator: TA98, Metabolic Activation: RAT, LIVER, S-9, AROCLOR 1254, Method: PREINCUBATION) of the same compound?
**A.** inactive; negative

**Q.** And the mutagenic call (Test System: AMES SALMONELLA TYPHIMURIUM, Strain/Indicator: TA100, Metabolic Activation: HAMSTER, LIVER, S-9, AROCLOR 1254, Method: PREINCUBATION)?
**A.** inactive; negative

**Q.** And the mutagenic call (Test System: AMES SALMONELLA TYPHIMURIUM, Strain/Indicator: TA100, Metabolic Activation: NONE, Method: PREINCUBATION)?
**A.** inactive; negative

**Q.** What about the mutagenic call (Test System: AMES SALMONELLA TYPHIMURIUM, Strain/Indicator: TA100, Metabolic Activation: RAT, LIVER, S-9, AROCLOR 1254, Method: PREINCUBATION) of the same compound?
**A.** inactive; negative

**Q.** And the mutagenic call (Test System: AMES SALMONELLA TYPHIMURIUM, Strain/Indicator: TA1535, Metabolic Activation: HAMSTER, LIVER, S-9, AROCLOR 1254, Method: PREINCUBATION)?
**A.** inactive; negative

**Q.** What about the mutagenic call (Test System: AMES SALMONELLA TYPHIMURIUM, Strain/Indicator: TA1535, Metabolic Activation: NONE, Method: PREINCUBATION) of the same compound?
**A.** inactive; negative

**Q.** What about the mutagenic call (Test System: AMES SALMONELLA TYPHIMURIUM, Strain/Indicator: TA1535, Metabolic Activation: RAT, LIVER, S-9, AROCLOR 1254, Method: PREINCUBATION) of the same compound?
**A.** inactive; negative

**Q.** What about the mutagenic call (Test System: AMES SALMONELLA TYPHIMURIUM, Strain/Indicator: TA1537, Metabolic Activation: HAMSTER, LIVER, S-9, AROCLOR 1254, Method: PREINCUBATION) of the same compound?
**A.** inactive; negative

**Q.** What about the mutagenic call (Test System: AMES SALMONELLA TYPHIMURIUM, Strain/Indicator: TA1537, Metabolic Activation: NONE, Method: PREINCUBATION) of the same compound?
**A.** inactive; negative

**Q.** And the mutagenic call (Test System: AMES SALMONELLA TYPHIMURIUM, Strain/Indicator: TA1537, Metabolic Activation: RAT, LIVER, S-9, AROCLOR 1254, Method: PREINCUBATION)?
**A.** inactive; negative

**Q.** What about the mutagenic call (Test System: MOUSE LYMPHOMA, Strain/Indicator: L5178Y (TK+/TK-), Metabolic Activation: NONE, Method: MICROWELL) of the same compound?
**A.** active; positive

**Q.** And the mutagenic call (Test System: MOUSE LYMPHOMA, Strain/Indicator: L5178Y (TK+/TK-), Metabolic Activation: NONE, Method: SUSPENSION/PLATE)?
**A.** active; positive

**Q.** What about the mutagenic call (Test System: MOUSE LYMPHOMA, Strain/Indicator: L5178Y (TK+/TK-), Metabolic Activation: S-9, Method: MICROWELL) of the same compound?
**A.** active; positive

**Q.** `c1cc2sncc2cc1OCC1CO1` (centres undefined) was tested. Which mutagenic call (Test System: AMES SALMONELLA TYPHIMURIUM, Strain/Indicator: TA100, Metabolic Activation: S-9, Method: STANDARD PLATE) did it give?
**A.** active; positive

**Q.** For `C[C@H]1CCCC(=O)CCCCCc2cc(O)cc(O)c2C(=O)O1`, which mutagenic call (Test System: AMES SALMONELLA TYPHIMURIUM, Strain/Indicator: TA98, Metabolic Activation: NONE, Method: STANDARD PLATE) is on record?
**A.** inactive; negative

**Q.** What about the mutagenic call (Test System: AMES SALMONELLA TYPHIMURIUM, Strain/Indicator: TA98, Metabolic Activation: RAT, LIVER, S-9, Method: STANDARD PLATE) of the same compound?
**A.** inactive; negative

**Q.** And the mutagenic call (Test System: AMES SALMONELLA TYPHIMURIUM, Strain/Indicator: TA100, Metabolic Activation: NONE, Method: STANDARD PLATE)?
**A.** inactive; negative

**Q.** And the mutagenic call (Test System: AMES SALMONELLA TYPHIMURIUM, Strain/Indicator: TA100, Metabolic Activation: RAT, LIVER, S-9, Method: STANDARD PLATE)?
**A.** inactive; negative

**Q.** And the mutagenic call (Test System: AMES SALMONELLA TYPHIMURIUM, Strain/Indicator: TA1535, Metabolic Activation: NONE, Method: STANDARD PLATE)?
**A.** inactive; negative

**Q.** And the mutagenic call (Test System: AMES SALMONELLA TYPHIMURIUM, Strain/Indicator: TA1535, Metabolic Activation: RAT, LIVER, S-9, Method: STANDARD PLATE)?
**A.** inactive; negative; toxicity at 1000 ug/plate

**Q.** And the mutagenic call (Test System: AMES SALMONELLA TYPHIMURIUM, Strain/Indicator: TA1537, Metabolic Activation: NONE, Method: STANDARD PLATE)?
**A.** inactive; negative

**Q.** And the mutagenic call (Test System: AMES SALMONELLA TYPHIMURIUM, Strain/Indicator: TA1537, Metabolic Activation: RAT, LIVER, S-9, Method: STANDARD PLATE)?
**A.** inactive; negative

**Q.** What about the mutagenic call (Test System: AMES SALMONELLA TYPHIMURIUM, Strain/Indicator: TA1538, Metabolic Activation: NONE, Method: STANDARD PLATE) of the same compound?
**A.** inactive; negative

**Q.** What about the mutagenic call (Test System: AMES SALMONELLA TYPHIMURIUM, Strain/Indicator: TA1538, Metabolic Activation: RAT, LIVER, S-9, Method: STANDARD PLATE) of the same compound?
**A.** inactive; negative

**Q.** With `CCOCCl` as the compound, how does the mutagenic call (Test System: E. COLI, Strain/Indicator: H/R30R, Metabolic Activation: NONE, Method: PREINCUBATION) read?
**A.** active; positive

**Q.** And the mutagenic call (Test System: E. COLI, Strain/Indicator: HS30R UVRA, Metabolic Activation: NONE, Method: PREINCUBATION)?
**A.** active; positive

Source: PubChem BioAssay AID1259407 (Chemical Carcinogenesis Research Information System (CCRIS), 2018)
